# Test results: patent US9493466B2, “Treatment of cancer with TOR kinase inhibitors” (Signal Pharmaceuticals, LLC, priority 2011, dated 2016)
# System: U87MG tumors
# Test: U87MG human glioblastoma xenograft model (Compound 1)
# Type: in vivo, SCID mice
# Settings: for Tumor growth delay (TGD): to reach 1000 mm^3; for loss of initial body mass: end of first cycle (p<0.01)
# Description: U87MG Human Glioblastoma Xenograft Model (Compound 1). Efficacy Studies: Groups of female SCID mice bearing U87MG tumors (n=8-10/group) were dosed orally with vehicle or Compound 1 throughout the study, starting when tumor volumes reached approximately 200 mm^3. The twice daily (BID) dose groups were dosed with a 10-hour separation between morning and evening doses. In the positive control group, rapamycin was administered Q3D via intraperitoneal (IP) route. At the end of each study, plasma and/or tumor samples were collected.
# Cell Line and Culture. U87MG cell line was obtained from American Tissue Culture Collection (ATCC) (Gaithersberg, Md.) and grown in growth medium containing MEM, 2 mM L-glutamine, 0.1 mM non-essential amino acids and 1 mM sodium pyruvate and 10% fetal bovine serum (FBS). The cells were detached from tissue culture flasks using trypsin-EDTA. After centrifugation, the cell pellets were suspended in phosphate buffered saline (PBS) and counted using a hemocytometer. The final volume was adjusted to 5×10^6 cells/0.1 mL of PBS.
# Tumor Cell Inoculation. Mice were anesthetized with inhaled isoflurane and then inoculated with U87MG tumor cells subcutaneously on the right hind leg with 0.1 mL of a single cell suspension in PBS using a sterile 1 mL syringe fitted with a 26 gauge needle. Following inoculation, the mice were returned to microisolator cages
# Randomization of Animals. Following inoculation, tumors were allowed to grow to about 200 mm^3 prior to randomization. The typical number of days required for tumors to reach 200 mm^3 was 14-15 days. The tumor of each animal was measured and animals with tumors ranging between 175-250 mm^3 were included in the study. Animals from the pool were then distributed randomly into various cages and the cages were randomly assigned to vehicle, positive control, or test article groups. All of the mice were tagged with metal ear tags on the right ear.
# Test Article Preparation and Administration. Suspensions of Compound 1 were prepared in aqueous 0.5% CMC and 0.25% Tween-80. The formulations were homogenized using a Teflon™ pestle and mortar (Potter-Elvehjem tissue grinder). Between the doses, the formulated compound was stored under constant stirring using a magnetic stirrer at 4° C. in the dark. The test article and vehicle were administered by oral gavage. The positive control, rapamycin, was prepared as solution in 2% ethanol, 45% polyethyleneglycol 400, and 53% saline and administered by IP injection. Sterile syringes and gavage needles were used for compound administration. All of the procedures including injections were done in biosafety cabinets disinfected with 70% ethanol prior to use.
# Tumor Measurements. Tumor volumes were determined prior to the initiation of treatment and were considered as the starting volumes. Thereafter, tumors were measured twice a week for the duration of the study. The long and short axes of each tumor were measured using a digital caliper in millimeters. Tumor volumes were calculated using the formula: width^2×length/2. The tumor volumes were expressed in cubic millimeters (mm^3).
# Tumor Growth Delay (TGD) Calculations. Tumor growth delay is the difference in days for treated versus control tumors to reach a volume of 1000 mm^3. The TGD was calculated from the data plotted in a graph format.
# Body Weight Measurements. Initial body weights were recorded prior to the initiation of treatment using a digital scale. The percent body weight change during the course of the study was calculated using initial body weight measurements. Body weights of each animal were measured twice a week at the same time as the tumor measurements. Body weights were measured more frequently if significant decreases were noted during the course of the study.
structure (smiles),measurement,setting,value
"CO[C@H]1CC[C@H](N2C(=O)CNc3ncc(-c4ccc(C(C)(C)O)nc4)nc32)CC1 [Compound 1, 7-(6-(2-hydroxypropan-2-yl)pyridin-3-yl)-1-((1r,4r)-4-methoxycyclohexyl)-3,4-dihydropyrazino-[2,3-b]pyrazin-2(1H)-one]",average tumor volume,"5 mg/kg BID oral, Day 24 (dosing from Day 14)",149±9 mm^3
same,average tumor volume,"5 mg/kg BID oral, Day 31",208±31 mm^3
same,tumor volume reduction compared with vehicle control,"5 mg/kg BID oral, Day 31",91%
same,change in body weight,"5 mg/kg BID, 18 days",No significant change
same,Tumor growth delay (TGD),5 mg/kg BID,11 days
same,average tumor volume,"10 mg/kg BID oral, Day 24 (dosing from Day 14)",96±4 mm^3
same,average tumor volume,"10 mg/kg BID oral, Day 31",96±13 mm^3
same,tumor volume reduction compared with vehicle control,"10 mg/kg BID oral, Day 31",96%
same,loss of initial body mass,10 mg/kg BID,about 10%
same,Tumor growth delay (TGD),10 mg/kg BID,20 days
same,average tumor volume,"25 mg/kg Q2D oral, Day 24 (dosing from Day 14)",101±8 mm^3
same,average tumor volume,"25 mg/kg Q2D oral, Day 31",116±15 mm^3
same,tumor volume reduction compared with vehicle control,"25 mg/kg Q2D oral, Day 31",95%
same,loss of initial body mass,25 mg/kg Q2D,about 10%
same,Tumor growth delay (TGD),25 mg/kg Q2D,17 days
same,tumor regression,"5 and 10 mg/kg BID and 25 mg/kg Q2D, persisted until Day 31",showed tumor regression
same,lowest efficacious dose as determined by 65% tumor volume inhibition,"QD oral, 3 weeks",1 mg/kg
same,change in body weight,"QD study, 3 weeks, any of the groups",No statistically significant change
same,tumor volume reduction,"all dose levels tested (0.5, 1, 3, 5 mg/kg QD, 3 weeks), Day 34",Significant (p<0.001) tumor volume reduction
